These results are taken from PMC4728560 (Scientific Reports, 2016).

Assay [1] relates to Bcl-xL inhibition of cBidmt1/Bax. Briefly: In vitro reconstitution liposome permeabilization, cBidmt1/Bax with Bcl-xL. It is filed as biochemical. Conditions: ANTS/DPX liposomes, 100 nM Bax, 20 nM cBidmt1, pre-incubation pH 9, 45 min, 37 °C, 5 h, pH 7. The text has this: This purified assay system measures direct interactions in which full-length untagged Bcl-xL inhibits permeabilization by binding full-length caspase 8 cleaved Bid (cBid) and/or full-length untagged Bax, thereby preventing Bax oligomerization in membranes. […] In these assays liposome permeabilization by activated Bax releases the entrapped fluorophore/quencher pair 8-aminonaphthalene-1,3,6-trisulfonic acid (ANTS)/p-xylene-bispyridinium (DPX), resulting in a measurable increase of fluorescence.
(A–E) in vitro reconstitution assay on liposome permeabilization. […] The treated Bcl-xL was then added to reactions containing ANTS-DPX liposomes, 100 nM Bax and 20 nM of either cBid (A,B) or cBidmt1(C,D) at pH 7. Liposome permeabilization was quantified by fluorescence after 5h incubation at 37 °C where 100% release was defined as the fluorescence change due to lipid solubilization with 1% Triton X-100. […] Error bars, std. dev. n = 3. […] Cyto c extra-mito: in the supernatant, analysed by Western blot. […]
Figure 10 A,B) or cBid mt1 (Supplementary Figure 10 C,D) at pH 7 to quantify the activity of Bcl-xL inhibition of liposome permeablization. […]
then added to reactions containing ANTS-DPX liposomes, 100nM Bax and 20nM of either c Bid (A, C) or cBid mt1(B, D) at pH 7 and liposome permeabilization was quantified by fluorescence […]

The test system of assay [2] is thymocytes from TCTP^+/− mice. Briefly: Complementation (viability) of γ-irradiated TCTP+/− thymocytes. It is filed as cell-based, mouse. Conditions: γ-irradiation 2.5 Gy; overnight culture; 0 to 1000 nM. The source says: Figure 4 Molecular/functional analysis of the h1 (P1) subregion of BH3-TCTP. […]
Peptides used for in vitro assays:
WT-TCTP (11-31): […]
R21A-TCTP (11-31): […]
Hybrid Bax/TCTP: […]
Peptides used for in vivo assays:
WT-TCTP (1-31) : […]
Hybrid Bax-TCTP: […]
TCTP-FLAG peptides used for in vivo assays:
WT-TCTP (1-31)-FLAG : […] DYKDDDDK-OH
TCTP-Bax-TCTP-FLAG: […]-OH […]
subdomain in the BH3 motif is underlined. Peptides were purchased from Smartox […]
Complementation and transduction experiments
In order to complement the haploinsufficient TCTP+/- mice with exogenous TCTP, we took advantage of the fact that the first N-terminal fragment of TCTP functions as a Protein Transduction Domain (PTD), enabling TCTP to penetrate into the cell by a mechanism hitherto […]
not well understood23,27-29. […]
of γ irradiation) and cultured, at a concentration of 10^7 cells/ml, overnight in the presence of […]
20) at concentrations ranging from 0-1000nM. For the transduction assays using WT-TCTP- […]
concentrations were 10 microM, 50 microM and 100 microM.
γ-irradiated thymocytes were fixed by adding 500ul of PFA 4% and incubated for 20 min at room temperature. The cells were washed twice with PBS and permeabilized for 10 min with 0.2% triton X-100 in PBS at room temp. The cells were washed twice with PBS. Proteins were blocked in Blocking buffer (1% BSA 0.5% Tween in PBS) 1h at room temperature. The primary antibody was added with blocking buffer and placed in a rotating wheel overnight in a cold room.
Cells were then washed 3 times with PBS and incubated with secondary antibody with blocking buffer 1h at room temperature. The cells were washed 3 times with PBS and suspended in 200 µL PBS and used for Flow Cytometry or further used for immunohistochemistry: 5 µl of each sample were mixed with 5 µl of ProLong® Gold antifade reagent (Life Technologies) and visualized, using the IX73 inverted fluorescence microscope and the cellSens™ Dimension […]
FACS analysis (BD Accuri™ C6 Cytometer (BD Biosciences) of incorporation of exogenous

Regarding “TCTP: Translationally Controlled Tumor Protein (TCTP/tpt1), recombinant full-length”, the “effect on Bcl-xL inhibition of cBidmt1/Bax-mediated liposome permeabilization” value in assay [1] is “enhanced Bcl-xL inhibition”. For the same substance, the “rescue of TCTP+/− haploinsufficient phenotype / anti-apoptotic function” value in assay [2] is recorded as “rescue completely the TCTP^+/− haploinsufficient phenotype”.
